The subject of the assay is head and neck squamous cell carcinoma cells. Description: head and neck squamous cell carcinoma xenograft model, tumor volume monitored for 4 weeks. As to conditions: payload equal to low dose sustained release formulation (210 nanograms), FIG. 2. The format is in vivo, mice. The protocol: Athymic mice were injected subcutaneously with head and neck squamous cell carcinoma cells to form tumors. Mice were divided into groups and treated with a sustained release composition according to the present invention, QR206, at a high dose (2.1 micrograms) a low dose (210 nanograms), or with a low dose of unformulated drug (epothilone D, 210 nanograms). Tumor volume was monitored for 4 weeks.

Structures are written as SMILES.

Regarding `C/C1=C/C[C@@H](/C(C)=C/c2csc(C)n2)OC(=O)C[C@H](O)C(C)(C)C(=O)[C@H](C)[C@@H](O)[C@@H](C)CCC1` [EpoD, Epothilone D], the “tumor growth rate of vehicle only control compared with the unformulated drug” value is “higher tumor growth rate”.

These data come from patent publication US20200276168A1, “Sustained Release Pharmaceutical Compositions and Methods of Use” (Qrono, Inc., priority 2015, published 2020).
